Test results as given in patent US4572909A, “2-(Secondary aminoalkoxymethyl) dihydropyridine derivatives as anti-ischaemic and antihypertensive agents” (Pfizer Inc., priority 1982, dated 1986).
Structures can show the parent of a compound that is named as a salt. Where two headings read alike, the source gives them in different places.

System: rat aorta
Experiment: reduction of calcium-induced contraction (response to calcium chloride) of spirally cut strips of rat aorta in vitro
Type: cell-based
Method: The ability of the compounds to inhibit the movement of calcium into the cell is shown by their effectiveness in reducing the response of isolated […] to an increase in calcium ion concentration in vitro. The test is performed by mounting spirally cut strips of rat aorta with one end fixed and the other attached to a force transducer. The tissue is immersed in a bath of physiological saline solution containing potassium ions at a concentration of 45 millimolar and no calcium. Calcium chloride is added to the bath with a pipette to give a final calcium ion concentration of 2 millimolar. The change in tension caused by the resulting contraction of the tissue is noted. The bath is drained and replaced with fresh saline solution and, after 45 minutes, the test is repeated with the particular compound under test present in the saline solution. The concentration of compound required to reduce the response by 50% is recorded.

[1] = 0.75 h; isolated rat aorta strips; 45 millimolar potassium; 2 millimolar calcium; retest after 45 minutes with compound; read-out: molar concentration of the compounds required to reduce the response by 50% (IC50)
[2] = ranking among the tested Examples
[3] = read-out: molar concentration of the compounds required to reduce the response by 50% (IC50); isolated rat aorta strips; 45 millimolar potassium; 2 millimolar calcium; retest after 45 minutes with compound
[4] = isolated rat aorta strips; 45 millimolar potassium; 2 millimolar calcium; retest after 45 minutes with compound; read-out: molar concentration of the compounds required to reduce the response by 50% (IC50)

IC50 [1] [nM]	SMILES	activity ranking by IC50 (the smaller the concentration the more active the compound) [2]	other results
3.2	CCOC(=O)C1=C(COCCNC)NC(C)=C(C(=O)OC)C1c1ccccc1Cl.O=C(O)C(=O)O (stereo not drawn) [Example 1, 4-(2-chlorophenyl)-2-[2-(methylamino)ethoxymethyl]-3-ethoxycarbonyl-5-methoxycarbonyl-6-methyl-1,4-dihydropyridine, oxalate salt]	most active compounds	
	CCOC(=O)C1=C(COCCN)NC(C)=C(C(=O)OC)C1c1ccccc1Cl.O=C(O)/C=C\C(=O)O (stereo not drawn) [Example 22, 2-[(2-aminoethoxy)methyl]-4-(2-chlorophenyl)-3-ethoxycarbonyl-5-methoxycarbonyl-6-methyl-1,4-dihydropyridine maleate]	most active compounds	IC50 [3]: 3.2 nM
50	CCOC(=O)C1=C(COCCNCc2ccccc2)NC(C)=C(C(=O)OC)C1c1ccccc1Cl (stereo not drawn) [Example 8]		
160	CCOC(=O)C1=C(COCCN)NC(C)=C(C(=O)OC)C1c1ccccc1 (stereo not drawn) [Example 14]		
20	CCOC(=O)C1=C(COCCNC)NC(C)=C(C(=O)OC)C1c1ccccc1F (stereo not drawn) [Example 3]		
6.3	CCOC(=O)C1=C(COCCN)NC(C)=C(C(=O)OC)C1c1cccc(Cl)c1Cl (stereo not drawn) [Example 13]		
40	CCOC(=O)C1=C(COCCNC)NC(C)=C(C(=O)OC)C1c1cccc(Cl)c1 (stereo not drawn) [Example 5]		
13	CCOC(=O)C1=C(COCCNC)NC(C)=C(C(=O)OC)C1c1c(F)cccc1Cl (stereo not drawn) [Example 7]		
	CCOC(=O)C1=C(COCCN)NC(C)=C(C(=O)OC)C1c1ccccc1Cl.O=C(O)/C=C\C(=O)O (stereo not drawn) [Example 11, 2-[(2-aminoethoxy)methyl]-4-(2-chlorophenyl)-3-ethoxycarbonyl-5-methoxycarbonyl-6-methyl-1,4-dihydropyridine maleate]	most active compounds	IC50 [3]: 3.2 nM
200	CCOC(=O)C1=C(COCCNC)NC(C)=C(C(=O)OC)C1c1cccc(O)c1Cl (stereo not drawn) [Example 6]		
	CCOC(=O)C1=C(COCCNC)NC(C)=C(C(=O)OC)C1c1ccccc1Cl.O=C(O)/C=C\C(=O)O (stereo not drawn) [Example 24, 4-(2-chlorophenyl)-2-[2-(N-methylamino)ethoxymethyl]-3-ethoxycarbonyl-5-methoxycarbonyl-6-methyl-1,4-dihydropyridine maleate]	most active compounds	IC50 [4]: 3.2 nM
18	CCOC(=O)C1=C(COCCN)NC(C)=C(C(=O)OC)C1c1ccccc1F (stereo not drawn) [Example 15]		
4	CCOC(=O)C1=C(COCCNCC(N)=O)NC(C)=C(C(=O)OC)C1c1ccccc1Cl (stereo not drawn) [Example 19, 2-(2-{[4-(2-Chlorophenyl)-3-ethoxycarbonyl-5-methoxycarbonyl-6-methyl-1,4-dihydropyrid-2-yl]methoxy}ethylamino)acetamide]		
22	CCOC(=O)C1=C(COCCNCC(=O)NC)NC(C)=C(C(=O)OC)C1c1ccccc1Cl (stereo not drawn) [Example 20]		
63	CCOC(=O)C1=C(COCCNC)NC(C)=C(C(=O)OC)C1c1ccccc1OC (stereo not drawn) [Example 4]		
	CCOC(=O)C1=C(COCCNC)NC(C)=C(C(=O)OC)C1c1ccccc1Cl.O=C(O)/C=C\C(=O)O (stereo not drawn) [Example 23, 4-(2-Chlorophenyl)-2-[2-(N-methylamino)ethoxymethyl]-3-ethoxycarbonyl-5-methoxycarbonyl-6-methyl-1,4-dihydropyridine maleate]	most active compounds	IC50 [4]: 3.2 nM
	CCOC(=O)C1=C(COCCN)NC(C)=C(C(=O)OC)C1c1ccccc1Cl (stereo not drawn) [Example 12, 2-[2-aminoethoxy)methyl]-4-(2-chlorophenyl)-3-ethoxycarbonyl-5-methoxycarbonyl-6-methyl-1,4-dihydropyridine maleate]	most active compounds	IC50 [4]: 3.2 nM
32	CCOC(=O)C1=C(COCCNC)NC(C)=C(C(=O)OC)C1c1ccccc1 (stereo not drawn) [Example 2]		
25	CCOC(=O)C1=C(COCCNCCOC)NC(C)=C(C(=O)OC)C1c1ccccc1Cl (stereo not drawn) [Example 10]		

SMILES	IC50 [1] [nM]	activity ranking by IC50 (the smaller the concentration the more active the compound) [2]	other results
CCOC(=O)C1=C(COCCN)NC(C)=C(C(=O)OC)C1c1ccccc1Cl (stereo not drawn) [Example 9]	3.2	most active compounds	
